# Assay results taken from US9861685B2, “Methods of treating hemoglobinopathies” (Duke University, priority 2012, dated 2018).
# Key:
# [1] = system: SS RBCs co-incubated with polymorphonuclear cells (PMNs); conditions: previously shown; SS RBCs co-incubated with naive PMNs; cited from earlier work
# ERK1/2 = conditions: see WO 2012/149547; cited from earlier work
# cAMP = conditions: SS RBCs
# β-arrestin1/2 [2] = assay type: cell-based, human
# [3] = system: human SS RBC adhesion to vascular endothelium and vaso-occlusion; assay: Intravital microscopy of ex vivo treated human SS RBCs infused into nude mice (window chamber); assay type: in vivo; conditions: nude mice n=2; SS RBCs treated ex vivo with 20 nM epinephrine 1 min
# Procedure: For some in vivo adhesion studies, packed SS RBCs were fluorescently labeled with the dye Dil (Molecular Probes Inc., Eugene, Oreg.), following the manufacturer's instructions, prior to cell treatment. Dil has been used in previous in vivo studies, and this dye has no effect on RBC suspension viscosity and RBC survival in circulation.^30 Cell morphology was checked by microscopy.
# All animal experiments were carried out in accordance with protocols approved by the Duke University Animal Care and Use Committee. Female athymic homozygous nude mice (nu-/nu-) were between 8-12 weeks of age (Charles River Laboratories, Wilmington, Mass.).
# General anesthesia was achieved by intra-peritoneal injection of 100 mg/kg of ketamine (Abbott Laboratory, Chicago, Ill.) and 10 mg/kg of xylazine (Bayer, Shawnee Mission, Kans.). […]
# Animals were infused with washed SS RBCs (300 μl hematocrit (Hct) 50% in saline) treated with epinephrine at 20 nM for 1 min or 5 μM βARK1 for 1 hour followed by treatment with 20 nM epinephrine for 1 min. […] Microcirculatory events and cell adhesion were simultaneously recorded using a Trinitron Color video monitor (PVM-1353 MD, Sony) and JVC videocassette recorder (BR-S3784, VCR King, Durham, N.C.) connected to a digital video camera C2400 (Hamamatsu Photonics K.K., Japan). […]
# ERK [4] = conditions: cited from earlier work
# β-arrestin1/2 [5] = assay: Western blot of SS RBC membrane ghosts for β-arrestin1/2 and phosphorylated β-arrestin1
# GRK2 = biological target: T1, GRK2 (Homo sapiens, UniProt P25098); assay: Western blot of SS RBC membrane ghosts for total and phosphorylated GRK2
# T1 sequence (P25098 1-689): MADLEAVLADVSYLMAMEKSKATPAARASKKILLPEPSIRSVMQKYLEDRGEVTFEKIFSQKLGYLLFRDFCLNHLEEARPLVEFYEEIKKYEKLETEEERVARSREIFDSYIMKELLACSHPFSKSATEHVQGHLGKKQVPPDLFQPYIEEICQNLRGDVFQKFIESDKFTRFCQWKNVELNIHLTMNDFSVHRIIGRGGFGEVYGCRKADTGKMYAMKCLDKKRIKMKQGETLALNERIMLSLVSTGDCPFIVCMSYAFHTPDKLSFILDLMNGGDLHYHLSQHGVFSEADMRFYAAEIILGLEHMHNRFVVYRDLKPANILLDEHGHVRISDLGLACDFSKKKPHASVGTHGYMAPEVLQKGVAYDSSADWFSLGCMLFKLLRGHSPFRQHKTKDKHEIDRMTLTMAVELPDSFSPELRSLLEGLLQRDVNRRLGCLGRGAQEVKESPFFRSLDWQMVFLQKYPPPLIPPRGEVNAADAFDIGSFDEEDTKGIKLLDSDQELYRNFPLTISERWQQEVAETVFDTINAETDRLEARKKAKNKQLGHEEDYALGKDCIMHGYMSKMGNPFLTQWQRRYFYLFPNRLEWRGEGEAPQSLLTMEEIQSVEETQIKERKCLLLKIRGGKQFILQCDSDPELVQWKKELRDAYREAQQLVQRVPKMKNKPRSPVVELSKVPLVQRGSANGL
# ERK [6] = assay type: cell-based, human
structure (smiles),measurement,setting,value
COc1cc(F)c(F)c(Nc2ccc(I)cc2F)c1NS(=O)(=O)C1(C[C@H](O)CO)CC1 [RDEA119],ability of SS RBCs to promote PMN adhesion to ECs,[1],decreased
CC(=O)Nc1cccc(-n2c(=O)n(C3CC3)c(=O)c3c(Nc4ccc(I)cc4F)n(C)c(=O)c(C)c32)c1 [GSK1120212],ability of SS RBCs to promote PMN adhesion to ECs,[1],decreased
Cn1cnc2c(F)c(Nc3ccc(Br)cc3Cl)c(C(=O)NOCCO)cc21 [AZD6244],ability of SS RBCs to promote PMN adhesion to ECs,[1],decreased
"CNC[C@H](O)c1ccc(O)c(O)c1 [Epi, epinephrine]",ERK phosphorylation/activation in normal RBCs,ERK1/2,fails to become phosphorylated/activated
same,SCD patient samples tested in which cAMP levels increased,cAMP,50%
same,basal phosphorylation of β-arrestin1,β-arrestin1/2 [2],failed to increase
same,membrane-recruitment of β-arrestin1/2,β-arrestin1/2 [2],failed to increase
same,SS RBC adhesion in inflamed venules,[3],marked adhesion
same,vaso-occlusion (occlusion of vessels),[3],induced occlusion
same,ERK phosphorylation,ERK [4],enhanced
same,β-arrestin1/2 membrane-recruitment (translocation),β-arrestin1/2 [5],enhanced
same,β-arrestin1 phosphorylation,β-arrestin1/2 [5],enhanced
N#CC(=C(/N)Sc1ccccc1N)/C(C#N)=C(\N)Sc1ccccc1N [U0126],effect on CT-induced GRK2 membrane-translocation,GRK2,significantly abrogated
same,effect on CT-induced GRK2 phosphorylation,GRK2,significantly abrogated
same,effect on PTx-induced GRK2 membrane-translocation,GRK2,significantly abrogated
same,effect on PTx-induced GRK2 phosphorylation,GRK2,significantly abrogated
same,effect on CT-increased ERK phosphorylation,ERK [6],inhibited
same,ability of SS RBCs to promote PMN adhesion to ECs,[1],decreased
same,effect on CT-induced β-arrestin1/2 membrane-translocation,β-arrestin1/2 [5],significantly inhibited
same,effect on PTx-induced β-arrestin1/2 recruitment to the membrane,β-arrestin1/2 [5],failed to have an effect
same,effect on levels of β-arrestin1 phosphorylation (CT-treated),β-arrestin1/2 [5],decreased
